Measurements published in patent US20260372305A1, “A METHOD FOR CONTROLLING WEEDS” (SYNGENTA CROP PROTECTION AG, priority 2022, published 2026).
Several values for one entry are separate records, joined by “and”; a condition that tells them apart may be missing. Identical values can stand only once.

Legend:
[1] = test system: Amaranthus tuberculatus, homozygous for the deletion of glycine at amino acid 210 in PPX2L (G210 deletion); test: Postemergence control of Amaranthus tuberculatus with G210 deletion in PPX2L (Example 2); assay type: in vivo
[2] = test system: Amaranthus tuberculatus with a mutation at amino acid 210; test: Field trial: control of Amaranthus tuberculatus visually assessed as % weed control (Example 3); assay type: in vivo
Description: A field trial was carried out in a plot in Canada. The plot size per replicate was set to 10 m^2. Compound 1 and the standard product saflufenacil were applied to about 4 inch (about 10 cm) tall Amaranthus tuberculatus with a mutation at amino acid 210, using a water volume of 300 I/ha. The efficacy of the tested compounds was visually assessed 14 days after the application and expressed in % weed control, whereas ratings range from 100% being complete control and 0% representing weed populations/growth similar to what is observed in the untreated check. Only species present at a sufficient density and consistency were assessed for reliable ratings.

SMILES	% Survival out of 14 repetitions ([1]; in vivo)	plant survival ([1]; in vivo)	% Survival out of 14 repetitions ([1]; […], 0.5 g ai/ha^−1, postemergence, 14 days after application, Agridex 1% by volume) [%]	% Survival out of 14 repetitions ([1]; […], 1 g ai/ha^−1, postemergence, 14 days after application, Agridex 1% by volume) [%]	% Survival out of 14 repetitions ([1]; […], 2 g ai/ha^−1, postemergence, 14 days after application, Agridex 1% by volume) [%]	% Survival out of 14 repetitions ([1]; […], 4 g ai/ha^−1, postemergence, 14 days after application, Agridex 1% by volume) [%]	% Survival out of 14 repetitions ([1]; […], 8 g ai/ha^−1, postemergence, 14 days after application, Agridex 1% by volume) [%]	% Survival out of 14 repetitions ([1]; […], 16 g ai/ha^−1, postemergence, 14 days after application, Agridex 1% by volume) [%]	% Survival out of 14 repetitions ([1]; […], 32 g ai/ha^−1, postemergence, 14 days after application, Agridex 1% by volume) [%]	% Survival out of 14 repetitions ([1]; […], 64 g ai/ha^−1, postemergence, 14 days after application, Agridex 1% by volume) [%]	plant survival ([1]; at or beyond 32 g ai/ha)	control of PPO inhibitor herbicide resistant Amaranthus tuberculatus with a mutation at amino acid 210 compared with fomesafen ([1]; in vivo)	control of Amaranthus tuberculatus with a mutation at codon 210 compared to saflufenacil [2]
CS(=O)(=O)NC(=O)c1cc(Oc2ccc(C(F)(F)F)cc2Cl)ccc1[N+](=O)[O-] [fomesafen, reference compound]	100% and 93%	significant plant survival											
CCOC(=O)[C@]1(C)CC(c2cc(-n3c(=O)n(C)c(=S)n(C)c3=O)c(F)cc2Cl)=NO1 [compound 1, ethyl (5S)-3-[2-chloro-5-(3,5-dimethyl-2,6-dioxo-4-thioxo-1,3,5-triazinan-1-yl)-4-fluoro-phenyl]-5-methyl-4H-isoxazole-5-carboxylate]			100	100	100	100	86	50	0	0	no plants survived	superior control	equivalent, if not slightly improved control
